{"source": "patent US9724337B2", "about": "“AG-205 for the treatment of breast cancer” (University of Kentucky Research Foundation, priority 2009, dated 2017)", "key": {"[1]": {"test_system": "HCC827", "experiment": "AG-205 viability assay in HCC827 cells", "format": "cell-based", "conditions": "HCC827 cells, ΔE746-A750 EGFR", "protocol": "(§1) Tissue culture. MDA-MB-468 cells were a kind gift from Dr. Rina Plattner of the University of Kentucky and were maintained in medium consisting of Dulbecco's Modified Eagle Medium containing 10% serum supreme (Fisher) and antibiotics. Cells were grown at 37° C. in 5% CO2 in air. A549 and HCC827 lung cancer cells, as well as SK-Br-3 breast cancer cells were obtained from the ATCC (American Type Culture Collection) and were grown under the same conditions. The H1650 lung cancer cell line was a kind gift from Dr. Heinz Kohler of the University of Kentucky. The Pgrmc1 ligand AG-205 was purchased from Timtec, Inc. The EGFR inhibitor AG1478 was from Biomol, Inc. and was used at a concentration range of 0.8-40 μM.\nProliferation, anchorage-independent growth and migration assays. For growth curves, cells were plated in 24 well dishes and grown in 10% serum-containing medium. […] Following the harvest of the final time point, the cells from each time point were counted using a Bright-line hemocytometer (Hausser Scientific).\nMTT viability assays were performed as described previously. […] The cells were then incubated with 0.5 mg/ml of 3-[4,5-dimethylthiazol-2-y]-2,5-diphenyltetrazolium bromide for 1.5 hours, at which time the media was removed, the precipitated crystals were dissolved in dimethyl sulfoxide, and the absorbance at 590 nm was measured using a Bio-Tek μQuant spectrophotometer."}, "[2]": {"test_system": "EGFR", "experiment": "Western blot of EGFR levels in MDA-MB-468 cells", "format": "cell-based, human", "conditions": "12-50 μM dose", "protocol": "(§2) Panel A is a diagram indicating the positions of the siRNA molecules targeting Pgrmc1. Exons 1, 2 and 3 are indicated by “ex”. MDA-MB-468 cells were transfected with a control siRNA (siCON, lanes 1 and 3) or two separate siRNAs targeting Pgrmc1 (siPGR and siPGR2, lanes 2 and 4, respectively). In panels B-E and H-L, protein levels were analyzed by western blot for EGFR (B), phospho-tyrosine (C), Pgrmc1 (D) and ku70 (E), as a control for protein loading. Panels F—H show western blot analyses for (F) IGF-1R, (G) c-Kit and (H) tfR. In panels I and J, transcript levels were analyzed by reverse transcriptase-PCR for EGFR (I) and Pgrmc1 (J). The top band indicates the gene of interest, while actin primers were included in the same reaction as a control for cDNA loading. […] In panels K-L, MDA-MB-468 cells were treated with increasing doses of the Pgrmc1 ligand AG-205. Protein expression was analyzed by western blot for EGFR (K) and ku70 (L). Cells were treated with 0 (lanes 1), 2 (lanes 2), 10 (lanes 3) or 50 (lanes 4) μM AG-205 for 24 hours in serum-free medium. In panels M-N, A549 cells were treated with the same doses and analyzed for EGFR (M) and ku70 (N). […] Expression analyses were repeated at least in duplicate throughout.\n(§3) Immunological techniques. […]"}, "[3]": {"molecular_target": "T1, Pgrmc1 (Homo sapiens, UniProt O00264)", "T1 sequence (O00264 whole entry)": "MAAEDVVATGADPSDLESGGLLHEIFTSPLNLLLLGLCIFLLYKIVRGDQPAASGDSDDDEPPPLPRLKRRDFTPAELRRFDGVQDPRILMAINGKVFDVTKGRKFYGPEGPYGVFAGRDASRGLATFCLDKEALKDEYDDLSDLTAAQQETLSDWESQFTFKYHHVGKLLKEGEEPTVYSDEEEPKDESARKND", "experiment": "Western blot of Pgrmc1 levels in MDA-MB-468 cells", "format": "cell-based", "protocol": "(§4) Immunological techniques. Cells were extracted in RIPA buffer (50 mM Tris, pH 8.0, 1% Nonidet P-40, 150 mM NaCl, 0.5% sodium deoxycholate, 0.1% sodium dodecyl sulfate, 1 mM phenylmethylsulfonyl fluoride, 10 μg/ml of aprotinin, leupeptin and pepstatin) for standard western blotting. The antibodies used in the study were anti-caveolin-1 (N-20, Santa Cruz Biologicals, # sc-894), anti-EGFR (1005, Santa Cruz, # sc-03), anti-ku70 (A-9, Santa Cruz # sc-5309), anti-Met (C-12, Santa Cruz # sc-10), anti-PARP (H-250, Santa Cruz # sc-7150), anti-phosphotyrosine (P-Tyr-100, Cell Signaling), anti-Pgrmc1 (Novus Biologics) and anti-tubulin (Neomarkers). Some western blots for Pgrmc1 were performed with a polyclonal antibody called anti-PGR-UK1 which was raised in rabbits to an internal 10 amino acid peptide."}, "[4]": {"test_system": "ku70", "experiment": "Western blot of ku70 levels in MDA-MB-468 cells", "format": "cell-based, human", "conditions": "AG-205 treatment", "protocol": "as §2, §3"}, "[5]": {"test_system": "EGFR", "experiment": "Western blot of EGFR levels in A549 cells", "format": "cell-based, human", "protocol": "as §2, §3"}, "[6]": {"test_system": "focal adhesion kinase", "experiment": "Western blot of focal adhesion kinase in A549 cells", "format": "cell-based, human", "protocol": "as §4"}, "[7]": {"test_system": "Met receptor tyrosine kinase", "experiment": "Western blot of Met in A549 cells", "format": "cell-based, human", "protocol": "as §4"}, "[8]": {"test_system": "ku70", "experiment": "Western blot of ku70 in A549 cells", "format": "cell-based, human", "protocol": "as §2, §3"}, "[9]": {"test_system": "polyADP ribose polymerase (PARP) or caspase 3", "experiment": "Cleavage of PARP or caspase 3 in AG-205-treated cancer cells", "format": "cell-based, human", "conditions": "AG-205-treated cells losing viability", "protocol": "as §4"}, "[10]": {"test_system": "NIH-3T3 cells", "experiment": "Growth inhibition of NIH-3T3 cells", "format": "cell-based", "conditions": "wild-type EGFR"}, "[11]": {"test_system": "SK-Br-3 cells", "experiment": "Growth inhibition of SK-Br-3 cells", "format": "cell-based", "conditions": "modest EGFR, extremely high HER2/neu", "protocol": "as §1"}, "[12]": {"molecular_target": "Pgrmc1-heme complex (Homo sapiens, UniProt O00264)", "sequence (O00264 whole entry, one chain of several)": "as the sequence (O00264 whole entry) above", "experiment": "Spectroscopic scan of purified Pgrmc1 with AG-205", "format": "binding", "conditions": "AG-205 added to purified Pgrmc1, spectroscopic scan", "protocol": "(A) Pgrmc1 (SEQ ID NO: 7) shares homology with AtMAPR2 (SEQ ID NO: 8) (underlined residues), which was the target for a screen for small molecule ligands. The putative heme-binding Tyr106 and Tyr112 are indicated with black boxes. (B) The molecular structure of AG-205 includes multiple aromatic components. (C) Spectroscopic scan of Pgrmc1 with vehicle control compared with vehicle plus 50 µM AG-205. The decrease in relative absorbance at 400 nm is consistent with an AG-205-induced change in the spectral properties of Pgrmc1-heme. The scan is representative of four separate scans using different Pgrmc1 protein preparations. The lower scan is a comparison of purified Pgrmc1 without and with the vehicle control (DMSO). Panels D (A549 cells) and E (MDA-MB-231 cells) are viability assays of cells maintained in 0.1% serum (solid line) or 10% serum (dashed line) and treated with increasing doses of AG-205. Percent viability was determined by cell counting, and “% viability” refers to the cell number relative to the untreated control."}, "[13]": {"test_system": "A549 cells", "experiment": "FACS cell cycle analysis", "format": "cell-based, human", "conditions": "triplicate FACS analysis, AG-205-treated cells", "protocol": "(A) Graph of triplicate FACS analysis. […] (B) Protein expression was analyzed by western blot for Pgrmc1 (top) and ku70 (bottom). Cells were treated with 0 (lanes 1), 2 (lanes 2), 10 (lanes 3) or 50 (lanes 4) μM AG-205 for 24 hours. […] (C-D) The panels show western blots of phosphorylated ERK1/2 (upper panels) and total ERK1/2 (lower panels) The lanes in panel C are A549/con (lane 1), A549/RNAi (lane 2), A549/LacZ (lane 3) and A549/PGR-hbd cells (lane 4) following 48 hours serum starvation. The cells infected with adenovirus were similar to those described in FIG. 3, panels C and D. In panel D, A549 cells were treated with vehicle (lane 1) or 20 μM AG-205 (lane 2) for 24 hours in serum-free media. (E) A549/con (solid line) or A549/RNAi (dashed line) cells were treated with increasing doses of AG-205 for 72 hours and viability was measured by counting, and “% viability” refers to the cell number relative to the untreated control. […] Percent viability was determined by cell counting, and “% viability” refers to the cell number relative to the untreated control. […]\nFACS was performed essentially as described previously (Mallory (2005)). […] FACS analysis was performed at the University of Kentucky flow cytometry facility, and the data were analyzed using Modfit software (Verity, Inc.)."}, "[14]": {"test_system": "EGFR", "experiment": "EGFR immunofluorescence localization in MDA-MB-468 cells", "format": "cell-based, human", "conditions": "AG-205-treated cells after 24 hours, 20 μM", "protocol": "To test this model, EGFR was stained by immunofluorescence 24 hours after treatment with 20 μM AG-205 in MDA-MB-468 cells. In cells treated with the vehicle control, EGFR localized to the cell membrane. In contrast, EGFR localized to both the cell membrane and an intracellular ring which corresponds to the perinuclear region of the cell. Also, Pgrmc1 may control the uptake from the membrane to the perinuclear region.\nImmunofluorescence for EGFR was performed as described previously (Crudden et al., (2005) Tumour Biol 26:142-6). Cells were grown on chamber slides, washed and fixed with 3.7% formaldehyde. The cells were then permeabilized with 0.1% Triton X-100 in phosphate-buffered saline, blocked with 10% serum and incubated, in turn, with anti-EGFR 1005 and a Texas red-labeled anti-rabbit secondary antibody."}, "[15]": {"test_system": "cancer cell lines from lung, breast, colon and prostate tissues", "experiment": "Toxicity to multiple cancer cell lines", "format": "cell-based", "conditions": "most active when serum is absent"}, "[16]": {"molecular_target": "T2, AtMAPR2 (Arabidopsis thaliana, UniProt Q9SK39)", "T2 sequence (Q9SK39 1-100)": "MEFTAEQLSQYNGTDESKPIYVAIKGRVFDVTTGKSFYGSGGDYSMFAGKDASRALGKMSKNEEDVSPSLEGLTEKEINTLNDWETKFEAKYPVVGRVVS", "conditions": "in silico screen then binding assay, 2005; cited from earlier work"}, "[17]": {"molecular_target": "T1, Pgrmc1", "experiment": "Western blot of Pgrmc1 in A549 cells", "format": "cell-based", "set-up": "endogenous in cells; host or cells: A549 cells", "conditions": "A549 cells, 2, 10 or 50 μM for 24 hours", "protocol": "(A) Graph of triplicate FACS analysis. […] (B) Protein expression was analyzed by western blot for Pgrmc1 (top) and ku70 (bottom). Cells were treated with 0 (lanes 1), 2 (lanes 2), 10 (lanes 3) or 50 (lanes 4) μM AG-205 for 24 hours. […] (C-D) The panels show western blots of phosphorylated ERK1/2 (upper panels) and total ERK1/2 (lower panels) The lanes in panel C are A549/con (lane 1), A549/RNAi (lane 2), A549/LacZ (lane 3) and A549/PGR-hbd cells (lane 4) following 48 hours serum starvation. The cells infected with adenovirus were similar to those described in FIG. 3, panels C and D. In panel D, A549 cells were treated with vehicle (lane 1) or 20 μM AG-205 (lane 2) for 24 hours in serum-free media. (E) A549/con (solid line) or A549/RNAi (dashed line) cells were treated with increasing doses of AG-205 for 72 hours and viability was measured by counting, and “% viability” refers to the cell number relative to the untreated control. (F) Cells expressing LacZ (solid line) or the Pgrmc1-hbd heme binding-deficient mutant (dashed line), were treated with increasing doses of AG-205. […] Percent viability was determined by cell counting, and “% viability” refers to the cell number relative to the untreated control. For each experiment, the results are representative of experiments performed at least in duplicate.\nas §3"}}}
{"compound": "Cc1ccc2c(c1)[C@H]1CN(C)CC[C@H]1N2C(=O)CSc1nnnn1-c1ccc(Cl)cc1", "note": "[AG-205]", "values": [{"measurement": "sensitivity to growth inhibition", "setting": "[1]", "result": "relatively insensitive"}, {"measurement": "decrease in EGFR levels", "setting": "[2]", "result": 14, "unit": "fold"}, {"measurement": "increase in Pgrmc1 levels", "setting": "[3]; 12 μM dose", "result": 4.8, "unit": "fold"}, {"measurement": "Pgrmc1 levels", "setting": "[3]; doses of 25 and 50 μM", "result": "nearly undetectable levels"}, {"measurement": "Ku70 levels", "setting": "[4]", "result": "not affected"}, {"measurement": "dose with optimal EGFR de-stabilizing activity", "setting": "[5]", "result": "20 to 50", "unit": "µM"}, {"measurement": "EGFR stability", "setting": "[5]; increasing doses", "result": "de-stabilized EGFR in a dose-dependent manner"}, {"measurement": "stability of focal adhesion kinase", "setting": "[6]", "result": "little effect"}, {"measurement": "stability of Met receptor tyrosine kinase", "setting": "[7]", "result": "little effect"}, {"measurement": "ku70 levels", "setting": "[8]", "result": "unaffected"}, {"measurement": "cleavage of PARP or caspase 3", "setting": "[9]", "result": "did not detect an increase"}, {"measurement": "growth inhibition", "setting": "[10]", "result": "inhibited"}, {"measurement": "sensitivity to growth inhibition", "setting": "[11]", "result": "relatively insensitive"}, {"measurement": "change in absorbance of purified Pgrmc1", "setting": "[12]", "result": "shift in absorbance at approximately 400 nm"}, {"measurement": "cell cycle distribution", "setting": "[13]", "result": "significant G1 arrest and accumulation of sub-G1 cells"}, {"measurement": "EGFR localization", "setting": "[14]", "result": "EGFR localized to the perinuclear region of the cell"}, {"measurement": "toxicity to cancer cell lines", "setting": "[15]", "result": "toxic to multiple cancer cell lines"}, {"measurement": "binding to At Pgrmc1 (AtMAPR2)", "setting": "[16]", "result": "bind to At Pgrmc1"}, {"measurement": "Pgrmc1 expression", "setting": "[17]", "result": "increases Pgrmc1 expression"}]}
